US11352624B2, “Reducing nonsense-mediated MRNA decay” (Cold Spring Harbor Laboratory, priority 2013, dated 2022)

Experiments:
[1] = system: mammalian cells carrying PTCs related to Usher syndrome, Rett syndrome, cystic fibrosis, and mucopolysaccharidosis I-Hurler (MPS I-H); settings: cited from earlier work
[2] = system: PTC-containing CFTR transcript (W1282X); assay: Radioactive RT-PCR of cells expressing CFTR minigene carrying W1282X, transfected with ASOs; assay type: cell-based, human; settings: for relative potency among ASOs of each CFTR exon-exon junction (screening): boundaries 24/25, 25/26, 26/27, 19 ASOs each
Experimental: ASO microwalks are performed as previously described (7), altogether targeting a region that spans 33 nt from −6 to −38 of the 3′ end of exons that are EJC-bound (FIG. 2). Briefly, cell lines expressing minigenes carrying mutations in the last EJC-bound exon or their wild-type versions and GFP (by transfection using lipofectamine or induction with tetracycline) are co-transfected with each of the 15-mer ASOs, independently. In total, 19 ASOs that are consecutively shifted by 1 nt are tested for each EJC-bound exon-exon junction downstream of the mutations (FIG. 2). This methodology was followed in designing the sequences for the ASOs to target PTC-containing (e.g., disease-causing nonsense mutation) HBB alleles (See SEQ ID NOs 1-19), MECP2 alleles (See SEQ ID NOs 20-38), CFTR alleles (See SEQ ID NOs 39-114), DMD alleles (See SEQ ID NOs 115-190), and IDUA alleles (See SEQ ID Nos 191-268). Different concentrations of ASOs are tested to obtain a dose-response curve. In the case of genes containing more than one exon-exon junction downstream of a PTC, minigene intermediates are constructed to screen for NMD-inhibiting ASOs one junction at a time and in combination with the best targeting ASO that resulted from the screening of the upstream junction. Abrogation of NMD is assessed by RT-PCR, and the percentage of mutant transcript is calculated as described above. Because some of the ASOs might interfere with splicing-factor binding sites, it is important to determine whether the splicing of the targeted exons is adversely affected. Only the ASOs that abrogate NMD without negative effects on splicing are pursued.
Moreover, minigenes consisting of CFTR exons 22-25, 22-26 and 22-27 carrying the W1282X mutation in exon 23 as well as its restive wild-type version were generated. As described above, 19 15-mer ASOs were obtained that target a region spanning nucleotides −38 to −6 of the exons 24/25 boundary and transfected to CFTR minigene expressing cells. Once this screening identified the best NMD inhibiting ASO, it is then transfected in combination with each the 19 15-mer ASOs that target a region spanning nucleotides −38 to −6 of the exons 25/26 boundary. The resulting best combination of ASOs (from each exon-exon boundary) was then transfected in combination with each of the 19 15-mer ASOs that target a region spanning nucleotides −38 to −6 of the exons 26/27 boundary. The levels of spliced CFTR mRNA were then measured after induced expression using radioactive RT-PCR.

[3] = system: PTC-containing HBB transcript (T39); assay: Radioactive RT-PCR of HeLa cells co-transfected with HBB reporters and ASOs; assay type: cell-based, human; settings: for mRNA levels of PTC-containing HBB transcript (T39): HeLa cells, ASO 50 nM co-transfected with HBB Q39X gene, compared with control-ASO, percentages normalized to WT
Source text: (§1) In some examples, it is desirable to start with mutations located in the last presumptive EJC-bound exon, as targeting only one junction at a time will simplify the interpretation of results. Once the effectiveness of preventing EJC deposition by ASOs is confirmed, two or more junctions are targeted. In some examples, three mutations for each gene are selected, and only mutations that lead to a transcript level <50% of the wild-type transcript will be targeted by the ASO microwalk (discussed below). […] Briefly, minigenes carrying the selected mutations and their wild-type versions are co-transfected with a GFP-expressing vector into HeLa cells. Forty-eight hours later, RNA is extracted and radioactive RT-PCR is performed. Products corresponding to the wild-type and mutant minigenes are normalized to GFP expression, and the percentage of the mutant over the wild-type transcript is calculated. In the case of integrated minigenes into U2OS cells, wild-type and mutant minigene products are normalized to endogenous housekeeping genes, e.g. GAPDH.
ASO microwalks are performed as previously described (7), altogether targeting a region that spans 33 nt from −6 to −38 of the 3′ end of exons that are EJC-bound (FIG. 2). Briefly, cell lines expressing minigenes carrying mutations in the last EJC-bound exon or their wild-type versions and GFP (by transfection using lipofectamine or induction with tetracycline) are co-transfected with each of the 15-mer ASOs, independently. […] Abrogation of NMD is assessed by RT-PCR, and the percentage of mutant transcript is calculated as described above. […]
A set of 19 overlapping 2′-O-methoxyethyl phosphorothioate (MOE-P=S) ASO 15mers targeting the canonical EJC region in exon 2 of HBB were synthesized. […] The levels of spliced HBB mRNA were then measured after transient or induced expression using radioactive RT-PCR. […] Truncated protein levels resulting from the ASO treatment were assessed by western blot analysis using anti-GFP antibody.

[4] = system: MECP2 S65X transcript; assay: MECP2 S65X minigene reporter, mRNA level after ASO transfection; assay type: cell-based, human; settings: microwalk of 19 ASOs
Source text: as §1
ASO microwalks are performed as previously described (7), altogether targeting a region that spans 33 nt from −6 to −38 of the 3′ end of exons that are EJC-bound (FIG. 2). […] Abrogation of NMD is assessed by RT-PCR, and the percentage of mutant transcript is calculated as described above. […]

| Molecule | restoration of functional protein [1] | relative potency among ASOs of each CFTR exon-exon junction (screening) [2] | also measured |
| --- | --- | --- | --- |
| NC[C@H]1O[C@@H](OC2C(O)[C@H](N)CC(N)[C@H]2O[C@H]2OC(CO)[C@@H](O)C(O)C2N)C(O)C1O (some centres unmarked) [NB30] | restore a significant amount of functional protein | – | – |
| NCC[C@H](O)C(=O)N[C@@H]1CC(N)[C@@H](O[C@H]2OC(CO)[C@@H](O)[C@H](O)C2N)[C@H](O[C@@H]2O[C@H](CN)[C@H](O)C2O)C1O (some centres unmarked) [NB54] | restore a significant amount of functional protein | – | – |
| C[C@@H](O)C1O[C@H](O[C@@H]2C(N)C[C@@H](NC(=O)[C@@H](O)CCN)[C@@H](O)C2O[C@@H]2O[C@H](CN)[C@H](O)C2O)[C@@H](N)C(O)[C@@H]1O (some centres unmarked) [NB84] | restore a significant amount of functional protein | – | – |
| ACTGGGTTCATCAAG (listed as DNA, chemistry not given here) [SEQ ID NO: 83, ASO targeting CFTR exon 25] | – | most potent ASOs targeting each exon-exon junction | – |
| CATATTTCTTGATCA (listed as DNA, chemistry not given here) [SEQ ID NO: 65, ASO targeting CFTR exon 24] | – | most potent ASOs targeting each exon-exon junction | – |
| CTCAGGATCCACGTG (2'-MOE phosphorothioate, further chemistry not given here) [SEQ ID NO: 15, 2′-O-methoxyethyl phosphorothioate (MOE-P=S) 15mer] | – | – | mRNA levels of PTC-containing HBB transcript (T39) [3]: increase in mRNA levels; relative potency among ASOs targeting HBB exon 2 ([3]; microwalk of 19 ASOs, -38 to -6 from the exon 2/exon 3 junction): most potent ASO targeting HBB exon 2 |
| GCATTCCAGCATTGC (listed as DNA, chemistry not given here) [SEQ ID NO: 107, ASO targeting CFTR exon 26] | – | most potent ASOs targeting each exon-exon junction | mRNA level of CFTR W1282X transcript, ASOs tested independently (relative potency) ([2]; CFTR 22-17 minigene, one ASO per exon-exon junction downstream of W1282X): most potent ASO |
| TACTTCCCAGCAGAG (listed as DNA, chemistry not given here) [SEQ ID NO: 25] | – | – | relative potency among ASOs targeting MECP2 exon 3 [4]: most potent ASO targeting MECP2 exon 3 |
| TCTCAGGATCCACGT (all 2'-MOE, all phosphorothioate, methylation of C not given here) [SEQ ID NO: 16, ASO targeting HBB exon 2; 2′-O-methoxyethyl phosphorothioate (MOE-P=S) 15mer] | – | – | mRNA levels of PTC-containing HBB transcript (T39) [3]: increase in mRNA levels |
